The source of these data is US20110135571A1, “HYBRID NANOPARTICLES AS ANTI-CANCER THERAPEUTIC AGENTS AND DUAL THERAPEUTIC/IMAGING CONTRAST AGENTS” (priority 2008, published 2011).

Broadly, the IC50 is the concentration that inhibits the measured activity by half.

The subject of assay [1] is MCF-7 cells (breast cancer). Nature of the assay: MCF-7 Viability Assays. In kind it is cell-based, human. The source says: (§1) Cell Lines All cell lines were purchased from the Tissue Culture Facility of the UNC Lineberger Comprehensive Cancer Center (Chapel Hill, N.C., United States of America) and cultured as per American Type Culture Collection (ATCC; Manassas, Va., United States of America) recommendations. HT29 cells (ATCC# HTB 38) were propagated in McCoy's 5A (Cellgro, Manassas, Va., United States of America) supplemented with 10% fetal bovine serum and 1% penicillin/streptomycin. MCF-7 cells (ATCC# HTB 22) were propagated in MEM Alpha (Cellgro, Manassas, Va., United States of America) supplemented with 10% fetal bovine serum, 1% penicillin/streptomycin, 1% sodium pyruvate, and 10 μg/mL insulin.
(§2) HT-29 viability assays: Angiogenic human colon cancer (HT-29) cells were grown in 96 well plates at 2000 cells/well to 100 μL total volume. After a 24 hour incubation, the media was replaced with 100 μL of drug solution containing 0.5% DMSO and 0.5% phosphate buffered saline (PBS) in media, with drug concentrations varying as indicated. All concentrations were performed in quadruplicate. Cell viability was measured after 72 hours using CellTiter 96 Aqueous One Solution Assay (Promega Corporation, Madison, Wis., United States of America), according to the manufacturer's protocol.
MCF-7 Viability Assays. As a further control, cell viability assays were also performed using MCF-7 cells (breast cancer). MCF-7 cells were assayed under the same conditions as HT-29, and also at 4000 cells/well and 72 hours. Unlike with HT-29, Pt(IV) drugs are active. […] NCP-1′-b was also tested but at 2000 cells/well.

In assay [2] the test system is Angiogenic human colon cancer (HT-29) cells. Nature of the assay: HT-29 viability assays. In kind it is cell-based. As to conditions: HT-29, 2000 cells/well, 72 hours, untargeted particles.
From the text: as §1, §2

[3] abbreviates: MCF-7, 4000 cells/well, 72 hours.

The compound `[NH2][Pt]([NH2])([Cl])([Cl])([O]C(=O)CCC(=O)O)[O]C(=O)CCC(=O)O` [DSCP, c,c,t-Pt(NH3)2Cl2(O2CCH2CH2CO2H)2] registered an IC50 in assay [1] (setting [3]) of 11.1 µM. For the same compound, the “cell death on treatment of HT-29 cells” value in assay [2] is on record as “did not lead to any appreciable cell death”.

cis-Pt(NH3)2Cl2 [cisplatin]: the IC50 in assay [1] (MCF-7, 2000 cells/well) came to 2.1 µM; in assay [1] (setting [3]), 10.7 µM.
